Test: Reverse-phase UPLC retention relative to actinomycin D
Format: physicochemical
Settings: Peptide BEH C18 300 Å, gradient 40–100% ACN + 0.1% FA, 60 °C
Method: The injected sample volume was 20 µL.
For chromatography optimization we tested reverse phase columns (C18 and C4) due to actinomycin D´s high lipophilicity. We used reverse phase material with a large pore width of 300 Å because large pore widths usually foster optimal mass transfer kinetics for macromolecules. Chromatographic peak shape and separation performed better on the C18 column. In accordance with the high lipophilicity of actinomycin D, a gradient from 40–100% eluent B was found optimal and yielded peaks with a width at baseline of 6 s (Figure 2).

7-amino actinomycin D
shift in reverse-phase retention relative to actinomycin D: large hydrophilic shift in retention time

Actinomycin C
shift in reverse-phase retention relative to actinomycin D: only a minimal lipophilic shift
